Assays:
Format in all cases: in vivo
[1] = tested on: Heliothis armigera; experiment: Example L Heliothis armigera test (soya bean shoots dipped); settings: single active compound, 4 ppm
Description: (§1) To prepare a suitable active compound preparation, 1 part by weight of active compound is mixed with the stated amounts of solvent and emulsifier, and the concentrate is diluted with emulsifier-comprising water to the desired concentration.
Soya bean shoots (Glycine max) are treated by being dipped into the active compound preparation of the desired concentration and populated with Heliothis armigera caterpillars while the leaves are still moist.
(§2) After the desired period of time, the destruction is determined in %. In this context, 100% means that all of the caterpillars were destroyed; 0% means that no caterpillars were destroyed.

[2] = tested on: Myzus persicae; experiment: Example M Myzus persicae test (cabbage leaves dipped); settings: single active compound, 0.16 ppm
Description: as §1
(§3) Cabbage leaves (Brassica oleracea) which are severely infested with green peach aphids (Myzus persicae) are treated by being dipped into the active compound preparation of the desired concentration.
(§4) After the desired period of time, the destruction is determined in %. In this context, 100% means that all of the aphids were destroyed; 0% means that no aphids were destroyed.

[3] = tested on: Plutella xylostella/normal strain; experiment: Example H Plutella test (normal strain); settings: single active compound
Description: as §1
Cabbage leaves (Brassica oleracea) are treated by being dipped into the active compound preparation of the desired concentration and populated with diamondback moth caterpillars (Plutella xylostella/normal strain) while the leaves are still moist.
as §2

[4] = tested on: Spodoptera exigua; experiment: Example N Spodoptera exigua test (cabbage leaves dipped); settings: single active compound, 20 ppm
Description: as §1
(§5) Cabbage leaves (Brassica oleracea) are treated by being dipped into the active compound preparation of the desired concentration and populated with army worm caterpillars (Spodoptera exigua) while the leaves are still moist.
as §2

[5] = tested on: Spodoptera exigua; experiment: Example I Spodoptera exigua test (cabbage leaves dipped); settings: single active compound, 100 ppm
Description: as §1, §5, §2

[6] = tested on: Spodoptera frugiperda; experiment: Example J Spodoptera frugiperda test (cabbage leaves dipped); settings: single active compound, 0.8 ppm
Description: as §1
Cabbage leaves (Brassica oleracea) are treated by being dipped into the active compound preparation of the desired concentration and populated with army worm caterpillars (Spodoptera frugiperda) while the leaves are still moist.
as §2

[7] = tested on: Heliothis armigera; experiment: Example F Heliothis armigera test (soya bean shoots dipped); settings: single active compound
Description: as §1
Soya bean shoots (glycine max) are treated by being dipped into the active compound preparation of the desired concentration and populated with Heliothis armigera caterpillars while the leaves are still moist.
as §2

[8] = tested on: Bemisia tabaci; experiment: Example K Bemisia tabaci test (cotton plants sprayed); settings: single active compound, 0.16 ppm
Description: as §1
(§6) Cotton plants (Gossypium hirsutum) which are infested with whitefly (Bemisia tabaci) eggs, larvae and puparia are sprayed with the active compound preparation of the desired concentration.
(§7) After the desired period of time, the destruction is determined in %. In this context, 100% means that all of the whiteflies were destroyed; 0% means that no whiteflies were destroyed.

[9] = tested on: Myzus persicae; experiment: Example G Myzus test (cabbage leaves dipped); settings: single active compound, 0.16 ppm
Description: as §1, §3, §4

[10] = tested on: Heliothis armigera; experiment: Example C Heliothis armigera test (soya bean shoots dipped); settings: single active compound, 4 ppm
Description: as §1
Soya bean shoots (Glycine max) are treated by being dipped into the active compound preparation of the desired concentration and populated with Heliothis armigera caterpillars while the leaves are still damp.
as §2

[11] = tested on: Plutella xylostella (normal strain); experiment: Example E Plutella xylostella test (normal strain); settings: single active compound, 20 ppm
Description: as §1
Cabbage leaves (Brassica oleracea) are treated by being dipped into the active compound preparation of the desired concentration and populated with diamondback moth caterpillars (Plutella xylostella/sensitive strain) while the leaves are still moist.
as §2

[12] = tested on: Aphis gossypii; experiment: Example A Aphis gossypii test (cotton leaves dipped); settings: single active compound, 0.8 ppm
Description: as §1
Cotton leaves (Gossypium hirsutum) which are severely infested with cotton aphids (Aphis gossypii) are treated by being dipped into the active compound preparation of the desired concentration.
as §4

[13] = tested on: Myzus persicae; experiment: Example D Myzus persicae test (cabbage leaves dipped); settings: single active compound, 0.8 ppm
Description: as §1, §3, §4

[14] = tested on: Bemisia tabaci; experiment: Example B Bemisia tabaci test (cotton plants sprayed); settings: single active compound, 0.8 ppm
Description: as §1, §6, §7

| SMILES | Destruction in % after 6 d [1] [%] | Destruction in % after 6 d [2] [%] | Destruction in % after 7 d ([3]; 20 ppm) [%] | Destruction in % after 6 d [4] [%] | Destruction in % after 7 d [5] [%] | Destruction in % after 7 d [6] [%] | Destruction in % after 7 d ([7]; 4 ppm) [%] | Destruction in % after 10 d [8] [%] | Destruction in % after 6 d [9] [%] | Destruction in % after 6 d [10] [%] | Destruction in % after 6 d [11] [%] | Destruction in % after 6 d [12] [%] | Destruction in % after 6 d [13] [%] | Destruction in % after 12 d [14] [%] | Destruction in % after 7 d ([3]; 4 ppm) [%] | Destruction in % after 7 d ([7]; 0.8 ppm) [%] |
| --- | --- | --- | --- | --- | --- | --- | --- | --- | --- | --- | --- | --- | --- | --- | --- | --- |
| O=[N+]([O-])/N=C1\NCCN1Cc1ccc(Cl)nc1 [Imidacloprid, imidacloprid] | 10 | 50 | 15 | 10 | 45 | 20 | 10 | 5 | 10 |  |  |  |  |  |  |  |
| CN/C(=N\[N+](=O)[O-])NCc1cnc(Cl)s1 [Clothianidin, clothianidin] | 0 | 0 |  | 10 |  |  |  | 5 |  | 45 | 60 | 0 | 65 | 35 |  |  |
| N#C/N=C1\SCCN1Cc1ccc(Cl)nc1 [Thiacloprid, thiacloprid] |  |  |  |  | 0 | 10 |  |  | 10 | 35 | 15 | 25 | 20 | 80 | 0 | 0 |
